Reference: the NIST ThermoML archive (doi:10.1021/acs.jced.7b00201)

Experiment: xn = mol fraction of the nth substance listed
Conditions: 100 kPa, Liquid; for viscosity: Falling or rolling sphere viscometry; for mass density: Vibrating tube method

CCCCC1CCCCC1 [butylcyclohexane] + CCCCCCCCCCCC
Conditions	mass density [kg/m3]	viscosity [mPa·s]
293.15 K, x2 = 0	799.34	1.305
293.15 K, x2 = 0.1017	792.77	1.319
293.15 K, x2 = 0.1996	786.82	1.334
293.15 K, x2 = 0.2951	781.36	1.348
293.15 K, x2 = 0.4221	774.55	1.369
293.15 K, x2 = 0.5126	769.99	1.384
293.15 K, x2 = 0.6256	764.59	1.404
293.15 K, x2 = 0.7002	761.2	1.418
293.15 K, x2 = 0.7989	756.92	1.437
293.15 K, x2 = 0.9012	752.7	1.457
298.15 K, x2 = 0	795.59	1.202
298.15 K, x2 = 0.1017	789.05	1.215
298.15 K, x2 = 0.1996	783.12	1.228
298.15 K, x2 = 0.2951	777.68	1.241
298.15 K, x2 = 0.4221	770.9	1.258
298.15 K, x2 = 0.5126	766.35	1.272
298.15 K, x2 = 0.6256	760.96	1.289
298.15 K, x2 = 0.7002	757.57	1.3
298.15 K, x2 = 0.7989	753.3	1.318
298.15 K, x2 = 0.9012	749.09	1.335
303.15 K, x2 = 0	791.84	1.112
303.15 K, x2 = 0.1017	785.32	1.123
303.15 K, x2 = 0.1996	779.41	1.135
303.15 K, x2 = 0.2951	773.99	1.146
303.15 K, x2 = 0.4221	767.22	1.162
303.15 K, x2 = 0.5126	762.68	1.173
303.15 K, x2 = 0.6256	757.3	1.187
303.15 K, x2 = 0.7002	753.92	1.197
303.15 K, x2 = 0.7989	749.66	1.211
303.15 K, x2 = 0.9012	745.45	1.226
308.15 K, x2 = 0	788.07	1.033
308.15 K, x2 = 0.1017	781.58	1.043
308.15 K, x2 = 0.1996	775.69	1.053
308.15 K, x2 = 0.2951	770.28	1.063
308.15 K, x2 = 0.4221	763.53	1.076
308.15 K, x2 = 0.5126	759.01	1.086
308.15 K, x2 = 0.6256	753.64	1.1
308.15 K, x2 = 0.7002	750.27	1.108
308.15 K, x2 = 0.7989	746.01	1.122
308.15 K, x2 = 0.9012	741.81	1.137
313.15 K, x2 = 0	784.3	0.963
313.15 K, x2 = 0.1017	777.82	0.971
313.15 K, x2 = 0.1996	771.96	0.98
313.15 K, x2 = 0.2951	766.57	0.989
313.15 K, x2 = 0.4221	759.84	1.001
313.15 K, x2 = 0.5126	755.32	1.009
313.15 K, x2 = 0.6256	749.97	1.021
313.15 K, x2 = 0.7002	746.6	1.029
313.15 K, x2 = 0.7989	742.35	1.041
313.15 K, x2 = 0.9012	738.16	1.054
318.15 K, x2 = 0	–	0.901
318.15 K, x2 = 0.1017	–	0.908
318.15 K, x2 = 0.1996	–	0.915
318.15 K, x2 = 0.2951	–	0.923
318.15 K, x2 = 0.4221	–	0.934
318.15 K, x2 = 0.5126	–	0.942
318.15 K, x2 = 0.6256	–	0.952
318.15 K, x2 = 0.7002	–	0.959
318.15 K, x2 = 0.7989	–	0.969
318.15 K, x2 = 0.9012	–	0.98
